Assay results from patent US20240114949A1, “AEROSOLIZABLE MATERIAL” (Nicoventures Trading Limited, priority 2019, published 2024).

Assay: Solubility of cannabidiol isolate in glycerol/propylene glycol/water solutions
Assay type: physicochemical
Conditions: Isolate 10 mg/mL

For `C=C(C)[C@@H]1CCC(C)=C[C@H]1c1c(O)cc(CCCCC)cc1O` [Isolate, cannabidiol], the Soluble (Glycerol 36, PG 52.09, Water 11 (w/w)) was “YES”, the Soluble (Glycerol 36, PG 53.09, Water 10 (w/w)) was “YES” and the soluble at 10 mg/mL (yes/no) (glycerol/propylene glycol/water solution, organic solvent or mixture, Glycerol 36, PG 47.09, Water 16 (w/w)) was less than 10000 µg/mL.
